Results: patent publication US20170073337A1, “DIHYDROTHIAZINE AND DIHYDROOXAZINE DERIVATIVES HAVING BACE1 INHIBITORY ACTIVITY” (Shionogi & Co., Ltd., priority 2014, published 2017)
Converted amounts (≈) assume the structure as drawn. Like-named read-outs stand apart in the source and are kept apart here.

Columns and labels:
CYP1A2 = biological target: T1, CYP1A2 (Homo sapiens, UniProt P05177); assay: CYP inhibition test (CYP1A2); format: in vitro ADME; settings: pooled human liver microsomes; 7-ethoxyresorufin O-deethylation
T1 construct: The commercially available pooled human liver microsomes are used as an enzyme resource; from tissue; host or cells: pooled human liver microsomes
T1 sequence (P05177 1-516): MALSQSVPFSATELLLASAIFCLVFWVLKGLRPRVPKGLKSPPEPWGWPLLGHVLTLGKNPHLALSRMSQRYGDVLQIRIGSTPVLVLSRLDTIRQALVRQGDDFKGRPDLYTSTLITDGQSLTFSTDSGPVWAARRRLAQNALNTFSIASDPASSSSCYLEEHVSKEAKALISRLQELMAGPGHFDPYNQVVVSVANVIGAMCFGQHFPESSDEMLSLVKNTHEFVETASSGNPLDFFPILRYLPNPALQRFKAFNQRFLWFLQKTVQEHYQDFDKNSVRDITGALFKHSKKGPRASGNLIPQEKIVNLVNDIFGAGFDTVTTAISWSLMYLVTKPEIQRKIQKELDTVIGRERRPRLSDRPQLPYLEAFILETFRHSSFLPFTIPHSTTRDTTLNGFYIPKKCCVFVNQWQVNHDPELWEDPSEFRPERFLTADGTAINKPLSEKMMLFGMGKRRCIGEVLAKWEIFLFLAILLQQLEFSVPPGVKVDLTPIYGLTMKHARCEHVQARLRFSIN
Procedure, shortened: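 Inhibition of CYP1A2 was measured in commercially available pooled human liver microsomes (0.2 mg protein/mL) using 7-ethoxyresorufin O-deethylation with 0.5 μmol/L ethoxyresorufin. Test compound at 1, 5, 10, 20 μmol/L in […] Hepes buffer was incubated at 37° C. after NADPH addition; methanol/acetonitrile=1/1 (v/v) stopped the reaction, and resorufin was read fluorescently.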

CYP2C19 = biological target: T2, CYP2C19 (Homo sapiens, UniProt P33261); assay: CYP inhibition test (CYP2C19); format: in vitro ADME; settings: pooled human liver microsomes; mephenytoin 4′-hydroxylation
T2 construct: The commercially available pooled human liver microsomes are used as an enzyme resource; from tissue; host or cells: pooled human liver microsomes
Procedure, shortened: (§1)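 Metabolite formation was quantified by LC/MS/MS: dextrorphan (2D6, 5 μmol/L dextromethorphan), terfenadine alcohol (3A4, 1 μmol/L terfenadine), 4′-hydroxymephenytoin (2C19, 50 μmol/L S-mephenytoin) and hydroxytolbutamide (2C9, 100 μmol/L tolbutamide). Reactions used NADPH-started pooled human liver microsomes (0.2 mg/mL) at 37 °C with compound at 1–20 μmol/L (four points). IC50 was calculated by logistic model relative to the DMSO control.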

CYP3A4 = biological target: T3, CYP3A4 (Homo sapiens, UniProt P08684); assay: CYP inhibition test (CYP3A4); format: in vitro ADME; settings: pooled human liver microsomes; terfenadine hydroxylation
T3 construct: The commercially available pooled human liver microsomes are used as an enzyme resource; from tissue; host or cells: pooled human liver microsomes
Procedure, shortened: as §1

Solubility test = format: physicochemical
Procedure, shortened: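 Dissolved concentration determined by LC/MS or SPE/MS (absolute calibration) in diluted filtrates, after 2 μL of 10 mmol/L DMSO stock was added to 198 μL JP 1st or JP 2nd fluid and equilibrated either 1 h with shaking at room temperature or 16 h standing at 25 °C.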

Metabolic stability test = format: in vitro ADME; settings: human liver microsomes, 37° C., 30 minutes, NADPH
Procedure, shortened: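 Parent compound was measured by LC/MS/MS or SPE/MS after a methanol/acetonitrile quench and reported as % remaining, with the 0 min sample set to 100%. Incubations ran 30 min at 37 °C in pH 7.4 Tris buffer containing pooled human liver microsomes at 0.5 mg protein/mL and 1 mmol/L NADPH.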

[1] = biological target: T4, human ether-a-go-go related gene (hERG) channel (Homo sapiens, UniProt Q12809); assay: hERG test; format: cell-based; settings: % inhibition of IKr tail peak current at 3 uM; CHO cells expressing hERG
T4 construct: expressed in transfected cells; host or cells: CHO cells
Procedure, shortened: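 Automated whole-cell patch clamp was run on CHO cells carrying human hERG, held at −80 mV. Current was recorded during the −50 mV repolarization (2 s) that followed a 2 s +20 mV step, after a −50 mV leak pulse.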

[2] = JP 1st fluid, 25 °C, pH 1.2, simulated gastric fluid, kinetic from dmso stock, read-out: JP1
[3] = JP 2nd fluid A, 25 °C, pH 6.8, aqueous buffer, kinetic from dmso stock, read-out: JP2_μM
[4] = JP 1st fluid, pH 1.2, simulated gastric fluid, kinetic from dmso stock, read-out: JP1
[5] = JP 2nd fluid A, pH 6.8, aqueous buffer, kinetic from dmso stock, read-out: JP2_μM
[6] = solubility in JP 2nd fluid B, 1% DMSO, *2: shaken for 1 hour at room temperature, read-out: JP2_μM
[7] = JP 2nd fluid B, pH 6.8, aqueous buffer, kinetic from dmso stock, read-out: JP2_μM

T3 sequence (P08684 whole entry): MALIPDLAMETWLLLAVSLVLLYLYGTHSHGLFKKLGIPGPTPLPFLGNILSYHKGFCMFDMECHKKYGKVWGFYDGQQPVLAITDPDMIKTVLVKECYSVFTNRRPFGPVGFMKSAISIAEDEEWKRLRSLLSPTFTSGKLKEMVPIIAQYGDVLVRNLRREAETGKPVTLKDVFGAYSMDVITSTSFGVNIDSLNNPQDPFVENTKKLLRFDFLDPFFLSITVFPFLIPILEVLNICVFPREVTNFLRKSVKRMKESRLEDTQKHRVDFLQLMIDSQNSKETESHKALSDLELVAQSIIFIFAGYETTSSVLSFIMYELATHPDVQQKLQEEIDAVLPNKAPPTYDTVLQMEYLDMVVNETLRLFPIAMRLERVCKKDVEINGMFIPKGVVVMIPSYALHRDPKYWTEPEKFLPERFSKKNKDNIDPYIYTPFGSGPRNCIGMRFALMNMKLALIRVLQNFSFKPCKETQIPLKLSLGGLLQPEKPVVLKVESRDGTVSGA
T2 sequence (P33261 whole entry): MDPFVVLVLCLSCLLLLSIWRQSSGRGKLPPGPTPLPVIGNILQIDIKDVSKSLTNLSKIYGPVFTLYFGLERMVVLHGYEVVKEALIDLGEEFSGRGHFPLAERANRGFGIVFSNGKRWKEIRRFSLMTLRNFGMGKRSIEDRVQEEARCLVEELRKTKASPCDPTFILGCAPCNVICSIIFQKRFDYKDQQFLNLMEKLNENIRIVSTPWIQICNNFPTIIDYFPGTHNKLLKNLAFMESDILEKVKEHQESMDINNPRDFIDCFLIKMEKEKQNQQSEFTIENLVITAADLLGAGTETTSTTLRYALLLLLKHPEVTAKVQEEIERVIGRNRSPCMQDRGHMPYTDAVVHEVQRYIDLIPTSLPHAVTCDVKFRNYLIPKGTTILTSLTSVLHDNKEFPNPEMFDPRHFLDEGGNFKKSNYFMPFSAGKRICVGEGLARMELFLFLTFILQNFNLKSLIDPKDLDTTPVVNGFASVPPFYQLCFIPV
T4 sequence (Q12809 whole entry): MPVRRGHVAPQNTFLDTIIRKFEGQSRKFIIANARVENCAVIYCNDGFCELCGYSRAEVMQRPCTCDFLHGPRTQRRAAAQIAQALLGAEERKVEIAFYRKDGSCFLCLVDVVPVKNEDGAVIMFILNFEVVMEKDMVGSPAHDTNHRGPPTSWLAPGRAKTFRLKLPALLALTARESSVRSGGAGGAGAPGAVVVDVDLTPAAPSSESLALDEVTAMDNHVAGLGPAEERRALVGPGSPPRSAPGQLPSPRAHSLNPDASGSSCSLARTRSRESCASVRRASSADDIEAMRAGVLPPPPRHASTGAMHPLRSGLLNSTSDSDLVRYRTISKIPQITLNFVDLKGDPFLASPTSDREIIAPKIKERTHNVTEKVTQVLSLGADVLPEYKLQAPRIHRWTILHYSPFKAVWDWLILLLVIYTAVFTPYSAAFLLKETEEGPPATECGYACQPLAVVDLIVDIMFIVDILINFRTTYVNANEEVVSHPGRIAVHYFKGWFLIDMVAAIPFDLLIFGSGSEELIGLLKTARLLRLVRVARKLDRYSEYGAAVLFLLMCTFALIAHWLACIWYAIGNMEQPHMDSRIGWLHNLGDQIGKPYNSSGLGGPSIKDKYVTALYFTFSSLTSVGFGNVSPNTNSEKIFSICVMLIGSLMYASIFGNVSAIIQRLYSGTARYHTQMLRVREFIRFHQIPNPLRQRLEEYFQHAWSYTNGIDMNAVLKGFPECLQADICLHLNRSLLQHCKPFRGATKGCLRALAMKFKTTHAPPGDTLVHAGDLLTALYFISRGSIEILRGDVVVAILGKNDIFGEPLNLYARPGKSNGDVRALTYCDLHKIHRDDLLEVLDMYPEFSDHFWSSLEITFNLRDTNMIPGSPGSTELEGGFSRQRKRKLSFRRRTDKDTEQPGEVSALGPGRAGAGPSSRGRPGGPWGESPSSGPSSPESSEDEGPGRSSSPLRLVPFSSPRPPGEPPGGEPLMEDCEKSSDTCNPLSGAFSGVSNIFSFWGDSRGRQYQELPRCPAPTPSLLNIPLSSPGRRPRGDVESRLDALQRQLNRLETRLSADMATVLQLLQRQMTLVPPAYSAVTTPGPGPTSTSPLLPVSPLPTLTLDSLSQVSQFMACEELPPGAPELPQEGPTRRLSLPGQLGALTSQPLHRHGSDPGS

SMILES | IC50 (CYP1A2) [µM] | IC50 (CYP2C19) [µM] | IC50 (CYP3A4) [µM] | solubility kinetic at 16 h (Solubility test; [2]) [µM] | solubility kinetic at 16 h (Solubility test; [3]) [µM] | remaining % (Metabolic stability test) [%] | hERG_3 uM_% [1] [%] | solubility kinetic at 1 h (Solubility test; [4]) [µM] | solubility kinetic at 1 h (Solubility test; [5]) [µM] | solubility kinetic at 16 h (Solubility test; [6]) [µM] | solubility kinetic at 1 h (Solubility test; [7]) [µM]
C[C@H]1SC(N)=N[C@](C)(c2nc(NC(=O)c3ccc(F)cn3)ccc2F)[C@H]1F [Compound I-2] | ≥ 20 | ≥ 20 | ≥ 20 | 23.3 (≈ 9.21 µg/mL) | > 50 | 88 | 38.7 | – | – | – | –
C[C@H]1SC(N)=N[C@](C)(c2nc(NC(=O)c3cnc(OCF)cn3)ccc2F)[C@H]1F [Compound I-3] | ≥ 20 | ≥ 20 | ≥ 20 | > 50 | > 50 | 81.4 | 45.5 | – | – | – | –
C[C@@]1(c2cc(NC(=O)c3ccc(C#N)cn3)ccc2F)C[C@@](C)(C(F)(F)F)OC(N)=N1 [Compound I-7] | – | – | – | > 50 | > 50 | 82 | 47.4 | – | – | – | –
C[C@]1(c2cc(NC(=O)c3ccc(F)cn3)ccc2F)N=C(N)O[C@H](CF)[C@@H]1OCC(F)(F)F [Compound I-11] | ≥ 20 | ≥ 20 | ≥ 20 | 42.7 (≈ 20.3 µg/mL) | > 50 | 104 | 42.5 | – | – | – | –
C[C@]1(c2cc(NC(=O)c3cnc(OCF)cn3)ccc2F)N=C(N)O[C@H](CF)[C@@H]1OCC(F)(F)F [Compound I-12] | ≥ 20 | ≥ 20 | ≥ 20 | 36.1 (≈ 18.3 µg/mL) | > 50 | 97.8 | 35.5 | – | – | – | –
C[C@H]1[C@@H](C(F)F)OC(N)=N[C@]1(C)c1cc(NC(=O)c2ccc(C#N)cn2)ccc1F [Compound I-31] | – | ≥ 20 | ≥ 20 | 38.8 (≈ 16.2 µg/mL) | > 50 | 85 | 27.4 | – | – | – | –
C[C@H]1[C@@H](C(F)(F)F)OC(N)=N[C@]1(C)c1cc(NC(=O)c2cnc(OCF)cn2)ccc1F [Compound I-41] | – | – | – | – | – | 105 | 24.8 | > 50 | > 50 | – | –
C[C@H]1SC(N)=N[C@](C)(c2cc(NC(=O)c3cnc(OCC(F)(F)F)cn3)ccc2F)[C@H]1F [Compound I-46] | ≥ 20 | ≥ 20 | – | – | – | 97.8 | 33.4 | > 50 | 8.3 (≈ 3.95 µg/mL) | – | –
C[C@H]1SC(N)=N[C@](C)(c2cc(NC(=O)c3ccc(F)cn3)ccc2F)C12CC(F)(F)C2 [Compound I-63] | ≥ 20 | ≥ 20 | – | – | – | 75.8 | 53.2 | > 50 | – | >50 | –
C[C@H]1SC(N)=N[C@](C)(c2cc(NC(=O)c3ncc(C#N)cc3Cl)ccc2F)[C@H]1F [Compound I-64] | – | ≥ 20 | ≥ 20 | – | – | 80.3 | 41.3 | > 50 | – | >50 | –
C[C@H]1SC(N)=N[C@](C)(c2cc(NC(=O)c3cnc(C(F)F)cn3)ccc2F)[C@H]1F [Compound I-65] | – | ≥ 20 | ≥ 20 | – | – | 96.5 | 28 | > 50 | – | >50 | –
CC[C@H]1SC(N)=N[C@](C)(c2cc(NC(=O)c3ccc(OCF)cn3)ccc2F)[C@H]1F [Compound I-67] | ≥ 20 | ≥ 20 | – | – | – | 69 | 56.5 | > 50 | – | >50 | –
CC(F)(F)[C@H]1OC(N)=N[C@](C)(c2cc(NC(=O)c3cnc(OCC(F)(F)F)cn3)ccc2F)[C@H]1F [Compound I-75] | ≥ 20 | ≥ 20 | – | – | – | 85.2 | 21.3 | > 50 | – | – | 3 (≈ 1.53 µg/mL)
CC(F)(F)[C@H]1OC(N)=N[C@](C)(c2cc(NC(=O)c3cnc(OCC(F)F)cn3)ccc2F)[C@H]1F [Compound I-77] | ≥ 20 | ≥ 20 | – | – | – | 93.1 | 44.1 | > 50 | – | – | 11.1 (≈ 5.45 µg/mL)
COCC(F)(F)[C@H]1OC(N)=N[C@](C)(c2cc(NC(=O)c3cnc(OCF)cn3)ccc2F)[C@H]1F [Compound I-79] | ≥ 20 | ≥ 20 | ≥ 10 | – | – | – | 7.8 | > 50 | – | >50 | –
C[C@]1(c2cc(NC(=O)c3cnc(OCF)cn3)ccc2F)N=C(N)O[C@H](C(F)(F)C2CC2)[C@@H]1F [Compound I-82] | ≥ 20 | ≥ 20 | – | – | – | 96.5 | 17.5 | > 50 | – | >50 | –
COc1cnc(C(=O)Nc2ccc(F)c([C@@]3(C)N=C(N)O[C@H](C(F)(F)C4CC4)[C@@H]3F)c2)cn1 [Compound I-83] | ≥ 20 | ≥ 20 | – | – | – | 55.3 | 18.1 | > 50 | – | – | 29.6 (≈ 13.8 µg/mL)
C[C@H]1SC(N)=N[C@](C)(c2cc(NC(=O)c3cnc(OCC4CC4)cn3)ccc2F)[C@H]1F [Compound I-85] | ≥ 20 | ≥ 20 | – | – | – | 93.2 | 41.4 | 47.2 (≈ 21.1 µg/mL) | – | – | 0.6 (≈ 0.269 µg/mL)
